pIC50, pKi: −log10 of the molar value.

One may read the pIC50 as the IC50 on a negative log10 scale, so that one unit is a factor of ten. A high value points to a low IC50. One may read the pKi as −log10 of the Ki, conventionally taken in molar units.

Chain of activated ERK2 (P28482 whole entry): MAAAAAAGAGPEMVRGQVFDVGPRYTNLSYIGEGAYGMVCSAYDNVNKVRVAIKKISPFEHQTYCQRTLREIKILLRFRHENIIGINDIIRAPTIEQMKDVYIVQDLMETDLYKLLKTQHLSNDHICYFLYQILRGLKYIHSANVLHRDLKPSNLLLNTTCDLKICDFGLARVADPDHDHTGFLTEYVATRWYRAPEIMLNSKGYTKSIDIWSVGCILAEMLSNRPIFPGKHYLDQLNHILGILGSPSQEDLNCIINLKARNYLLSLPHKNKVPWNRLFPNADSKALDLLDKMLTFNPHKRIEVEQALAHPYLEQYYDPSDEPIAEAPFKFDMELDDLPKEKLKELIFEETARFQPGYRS

One test relates to Colon cancer cells (HT-29 cell line). The test is described as follows: ERK inhibition cell proliferation assay (3H-thymidine uptake). Type of test: cell-based. Particulars: Homo sapiens, HT-29 cells, 3 days incubation. Here is the method:
Compounds may be assayed for the inhibition of ERK2 by a cell proliferation assay. In this assay, a complete media is prepared by adding 10% fetal bovine serum and penicillin/streptomycin solution to RPMI 1640 medium (JRH Biosciences). Colon cancer cells (HT-29 cell line) are added to each of 84 wells of a 96 well plate at a seeding density of 10,000 cells/well/150 μL. The cells are allowed to attach to the plate by incubating at 37° C. for 2 hours. A solution of test compound is prepared in complete media by serial dilution to obtain the following concentrations: 20 μM, 6.7 μM, 2.2 μM, 0.74 μM, 0.25 μM, and 0.08 μM. The test compound solution (50 μL) is added to each of 72 cell-containing wells. To the 12 remaining cell-containing wells, only complete media (200 μL) is added to form a control group in order to measure maximal proliferation. To the remaining 12 empty wells, complete media is added to form a vehicle control group in order to measure background. The plates are incubated at 37° C. for 3 days. A stock solution of ^3H-thymidine (1 mCi/mL, New England Nuclear, Boston, Mass.) is diluted to […] in RPMI medium then 20 μL of this solution is added to each well. The plates are further incubated at 37° C. for 8 hours then harvested and analyzed for ^3H-thymidine uptake using a liquid scintillation counter.
Consider `CCCCNCc1ccc(-c2cn[nH]c2-c2c[nH]c(C(=O)NC(CO)c3ccc(F)c(Cl)c3)c2)cc1Cl` (centres unmarked) [II-7], for which the pIC50 is > 5.00.

As to `CC(=O)N[C@H](C(=O)NCc1ccc(-c2cn[nH]c2-c2c[nH]c(C(=O)N[C@H](CO)c3ccc(F)c(Cl)c3)c2)cc1Cl)C(C)C` [II-21], the pIC50 was > 5.00. Take `CCNCc1ccc(-c2c[nH]nc2-c2c[nH]c(C(=O)N[C@H](CO)c3ccc(F)c(Cl)c3)c2)cc1Cl` [II-26, 4-[4-(3-Chloro-4-ethylaminomethyl-phenyl)-1H-pyrazol-3-yl]-1H-pyrrole-2-carboxylic acid [1-(3-chloro-4-fluoro-phenyl)-2-hydroxy-ethyl]-amide]: the pIC50 was > 5.00.

Another test has as its target activated ERK2 (Homo sapiens, UniProt P28482). Kind of test: ERK2 inhibition spectrophotometric coupled-enzyme assay. The test is classed as biochemical.
Settings: not given
How it is done: Compounds are assayed for the inhibition of ERK2 by a spectrophotometric coupled-enzyme assay (Fox et al (1998) Protein Sci 7, 2249). In this assay, a fixed concentration of activated ERK2 (10 nM) is incubated with various concentrations of the compound in DMSO (2.5%) for 10 min. at 30° C. in 0.1 M HEPES buffer, pH 7.5, containing 10 mM MgCl2, 2.5 mM phosphoenolpyruvate, 200 μM NADH, 150 μg/mL pyruvate kinase, 50 μg/mL lactate dehydrogenase, and 200 μM erktide peptide. The reaction is initiated by the addition of 65 μM ATP. The rate of decrease of absorbance at 340 nm is monitored, which indicates the extent of uninhibited enzyme present in the assay. The IC50 is evaluated from the rate data as a function of inhibitor concentration.
The compound numbers correspond to the compound numbers in Tables 1-3.
As for `O=C(N[C@H](CO)c1ccc(F)c(Cl)c1)c1cc(-c2[nH]ncc2-c2ccc(CN(CCCl)CCCl)c(Cl)c2)c[nH]1` [II-36], the pKi is > 6.00.

Staying with this test, now noted: activated ERK2 10 nM, 65 μM ATP, 30° C., pH 7.5; read-out: ERK2 Inhibitory Activity (Ki class).
For `CCCCNCc1ccc(-c2cn[nH]c2-c2c[nH]c(C(=O)NC(CO)c3ccc(F)c(Cl)c3)c2)cc1Cl` (centres unmarked) [II-7], the pKi is > 6.00. The same measure, in the same setting: the result for `N[C@@H](CO)C(=O)NCc1ccc(-c2cn[nH]c2-c2c[nH]c(C(=O)N[C@H](CO)c3ccc(F)c(Cl)c3)c2)cc1Cl` [II-75] reads > 6.00. On the same count and under the same terms, the result for `CC(O)CCNCc1ccc(-c2cn[nH]c2-c2c[nH]c(C(=O)N[C@H](CO)c3ccc(F)c(Cl)c3)c2)cc1Cl` (some centres unmarked) [II-32] reads > 6.00. Still for that read-out and setting: next, `CCOC(=O)C(C)N(C)Cc1ccc(-c2cn[nH]c2-c2c[nH]c(C(=O)N[C@H](CO)c3ccc(F)c(Cl)c3)c2)cc1C(F)(F)F` (some centres unmarked) [II-64]: > 6.00. For the molecule `CN(C)CCNCc1ccc(-c2cn[nH]c2-c2c[nH]c(C(=O)N[C@H](CO)c3ccc(F)c(Cl)c3)c2)cc1Cl` [II-79], the pKi is > 6.00.

On to `CCOC(=O)C(C)N(C)Cc1ccc(-c2cn[nH]c2-c2c[nH]c(C(=O)N[C@H](CO)c3ccc(F)c(Cl)c3)c2)cc1Cl` (some centres unmarked) [II-63], for which the pKi was > 6.00. Regarding `C[C@@H](O)[C@H](N)C(=O)NCc1ccc(-c2cn[nH]c2-c2c[nH]c(C(=O)N[C@H](CO)c3ccc(F)c(Cl)c3)c2)cc1Cl` [II-77], the pKi was > 6.00. With `CCOC(=O)C(C)NCc1ccc(-c2cn[nH]c2-c2c[nH]c(C(=O)N[C@H](CO)c3ccc(F)c(Cl)c3)c2)cc1C(F)(F)F` (some centres unmarked) [II-62], the pKi is > 6.00. Still for that read-out and setting: next, `CC(=O)N[C@H](C(=O)NCc1ccc(-c2cn[nH]c2-c2c[nH]c(C(=O)N[C@H](CO)c3ccc(F)c(Cl)c3)c2)cc1Cl)C(C)C` [II-21]: > 6.00; `N#CCNCc1ccc(-c2cn[nH]c2-c2c[nH]c(C(=O)N[C@H](CO)c3ccc(F)c(Cl)c3)c2)cc1Cl` [II-33]: > 6.00; `CCN(CC)C(=O)CNCc1ccc(-c2cn[nH]c2-c2c[nH]c(C(=O)N[C@H](CO)c3ccc(F)c(Cl)c3)c2)cc1Cl` [II-80]: > 6.00. Still for that read-out and setting: the result for `NC(=O)CNCc1ccc(-c2cn[nH]c2-c2c[nH]c(C(=O)N[C@H](CO)c3ccc(F)c(Cl)c3)c2)cc1Cl` [II-76] reads > 6.00; that for `CCNCc1ccc(-c2c[nH]nc2-c2c[nH]c(C(=O)N[C@H](CO)c3ccc(F)c(Cl)c3)c2)cc1Cl` [II-26, 4-[4-(3-Chloro-4-ethylaminomethyl-phenyl)-1H-pyrazol-3-yl]-1H-pyrrole-2-carboxylic acid [1-(3-chloro-4-fluoro-phenyl)-2-hydroxy-ethyl]-amide], > 6.00. With `CC(=O)N[C@@H](C)C(=O)NCc1ccc(-c2cn[nH]c2-c2c[nH]c(C(=O)NC(CO)c3ccc(F)c(Cl)c3)c2)cc1Cl` (some centres unmarked) [II-10], the pKi is > 6.00. On to `CC(C)(C)OC(=O)NCCNCc1ccc(-c2cn[nH]c2-c2c[nH]c(C(=O)N[C@H](CO)c3ccc(F)c(Cl)c3)c2)cc1Cl` [II-37], for which the pKi is > 6.00. For the molecule `CC(C)N(C)Cc1ccc(-c2cn[nH]c2-c2c[nH]c(C(=O)N[C@H](CO)c3ccc(F)c(Cl)c3)c2)cc1Cl` [II-54], the pKi is > 6.00.

(Values after patent US6750239B2, “Pyrazole-derived kinase inhibitors and uses thereof” (Vertex Pharmaceuticals Incorporated, priority 2001, dated 2004).)
